Results reported in publication PMC4650693, “Characterization of two-step deglycosylation via oxidation by glycoside oxidoreductase and defining their subfamily” (Scientific Reports, 2015).

Target: T1, FAD-GO from Rhizobium sp. GIN611 (Rhizobium sp. GIN611, UniProt G9ILI7)
T1 construct: recombinant, expressed in E. coli Rosetta-gami 2 (DE3, pLysS)
T1 sequence (G9ILI7 1-561): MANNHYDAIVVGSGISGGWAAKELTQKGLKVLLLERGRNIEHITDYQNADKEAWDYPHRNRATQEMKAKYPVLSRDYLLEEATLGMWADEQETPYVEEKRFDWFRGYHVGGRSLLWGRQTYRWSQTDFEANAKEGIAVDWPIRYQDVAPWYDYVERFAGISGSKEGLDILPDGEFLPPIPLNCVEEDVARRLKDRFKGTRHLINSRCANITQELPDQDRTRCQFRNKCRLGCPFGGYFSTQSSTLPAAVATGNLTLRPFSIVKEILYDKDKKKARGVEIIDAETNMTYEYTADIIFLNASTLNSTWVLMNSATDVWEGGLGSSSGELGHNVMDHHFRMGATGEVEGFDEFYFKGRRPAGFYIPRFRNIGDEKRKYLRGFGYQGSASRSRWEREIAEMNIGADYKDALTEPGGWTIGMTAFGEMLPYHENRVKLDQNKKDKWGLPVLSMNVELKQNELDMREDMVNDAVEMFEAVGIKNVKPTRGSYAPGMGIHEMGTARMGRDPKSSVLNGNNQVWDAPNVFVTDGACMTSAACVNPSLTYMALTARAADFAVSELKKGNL
Test: HPLC of oxidation and deglycosylation products
Format: biochemical
Conditions: C3-OH of glucose oxidised; FAD enzyme, O2
From the text: HPLC of oxidation and deglycosylation products on FAD-GO from Rhizobium sp.

Compound: CC(C)=CCC[C@](C)(O[C@@H]1O[C@H](CO)[C@@H](O)[C@H](O)[C@H]1O)[C@H]1CC[C@]2(C)[C@@H]1[C@H](O)C[C@@H]1[C@@]3(C)CC[C@H](O)C(C)(C)[C@@H]3CC[C@]12C [CK, Compound K]
- HPLC of oxidation and deglycosylation products: HPLC chromatogram of enzyme reactions using wild type, H493F mutant or H493A mutant enzyme
